From patent EP4310093A1, “AMINO ACID DERIVATIVE, PREPARATION METHOD THEREFOR, AND PHARMACEUTICAL COMPOSITION FOR TREATING HEPATITIS, COMPRISING SAME” (priority 2021, dated 2022)

Biological target: T1, NTCP (Homo sapiens, UniProt Q14973)
T1 construct: expressed in transfected cells; host or cells: HepG2-hNTCP-C4
T1 sequence (Q14973 1-349): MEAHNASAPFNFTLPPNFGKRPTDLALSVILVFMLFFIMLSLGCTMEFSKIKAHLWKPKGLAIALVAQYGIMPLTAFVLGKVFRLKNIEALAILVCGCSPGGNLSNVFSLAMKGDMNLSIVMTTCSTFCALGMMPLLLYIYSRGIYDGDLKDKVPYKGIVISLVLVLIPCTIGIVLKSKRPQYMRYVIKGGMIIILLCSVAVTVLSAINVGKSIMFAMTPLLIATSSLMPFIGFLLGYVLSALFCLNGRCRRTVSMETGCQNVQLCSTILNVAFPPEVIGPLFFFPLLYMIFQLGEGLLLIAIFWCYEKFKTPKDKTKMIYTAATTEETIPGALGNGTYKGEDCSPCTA
Assay: Inhibition of the binding between PreS1 (FITC-labelled) and NTCP expressing cell lines, flow cytometry
Settings: for activity at 50 µM: 2 h, read-out: relative fluorescence intensity compared to the HBV-induced group (HBV PreS1) solely treated with PreS1, 50 µM compound, 20 nM PreS1, HepG2-hNTCP-C4 cell line, 4°C, 2 hours, the lower the value, the more inhibited the binding
Protocol: HepG2-hNTCP-C4 cell line, a cell line expressing NTCP, was seeded in a 6 well plate at a density of 2×10^5/well and incubated at 4°C for 30 minutes when the confluency reached 80% after overnight incubation for 2 days. Thereafter, 20 nM PreS 1 (Myr-[…]-Lys(FITC)) and the compounds in Example 1, Examples 38 to 56 or the compound in Comparative Example 1 were treated by diluting in culture media at 4°C at a concentration of 50 µM respectively, and the media was suctioned after 2 hours, followed by washing 3 times with 4°C PBS. In order to take the cells off from the plate, 500 µl of 0.5 mM EDTA PBS solution was treated, and then incubation was performed at 37°C for 15 minutes to check whether the cells fell off through an optical microscope. After taking off the cells by pipetting, the cells were collected in a 1.5 ml tube and centrifuged (4000 rpm, 4°C, 3 min). After suctioning the supernatant, the pellet was washed 3 times with 4°C PBS, and then green fluorescence was measured via flow cytometry. In this case, taurocholic acid (TCA), a compound known as a substrate of NTCP to reduce the entry of HBV or HDV, was used as a positive control group.
In the graph at the top of FIG. 1, black (1) and red (2) indicate a negative control group with no treatment and an HBV-induced group (HBV preS1) solely treated with PreS1, respectively. Blue (HBV preS1+HBV entry inhibitor) (3) is the fluorescence value for each of Examples or Comparative Examples, evaluated that the closer to the negative control group, the more inhibited the binding between PreS1 and the NTCP cell line.
The experimental method was the same as in the Experimental Example 1-1, and 20 nM PreS1 and each compound were treated at 4 concentrations (0.2 µM, 2 µM, 10 µM, 50 µM).
With an expectation that there is a structure-activity relationship among compounds composed of bile acid and amino acids, for each of bile acids in Comparative Example 1 (lithocholic acid, LCA), Comparative Example 2 (ursodeoxycholic acid, UDCA), Comparative Example 3 (cholic acid, CA), Comparative Example 4 (hyodeoxycholic acid, HDCA), Comparative Example 5 (deoxycholic acid, DCA), and Comparative Example 6 (chenodeoxycholic acid, CDCA), an evaluation experiment was conducted on an ability to inhibit the binding between PreS1 and NTCP expressing cell lines, and also for Examples 1 (LCA-Ile) and Example 44 (LCA-Val) as well as the compounds in Example 2 (UDCA-Ile), Example 3 (UDCA-Val), Example 6 (CA-Ile), Example 7 (CA-Val), Example 8 (HDCA-Ile), Example 9 (HDCA-Val), Example 10 (DCA-Ile), Example 11 (DCA-Val), Example 14 (CDCA-Ile), and Example 15 (CDCA-Val) in which bile acid parts (lithocholic acid) of Example 1 (LCA-Ile) and Example 44 (LCA-Val) were substituted with other types of bile acids in Comparative Examples 2 to 6, an evaluation experiment was conducted on an ability to inhibit the binding between PreS1 and NTCP expressing cell lines. The experimental method was the same as in the Experimental Example 1-1, and 18 compounds in the Comparative Examples 1 to 6, Examples 1 to 3, Examples 6 to 11, Examples 14 to 15, and Example 44 were treated at a concentration of 50 µM along with 20 nM PreS 1. […]
In the Experimental Examples 1-4, it was determined whether there is additionally concentration dependence for Example 4 (UDCA-Trp), a compound with good inhibitory ability. […]

C[C@H](CCC(=O)N[C@@H](Cc1c[nH]c2ccccc12)C(=O)O)[C@H]1CC[C@H]2[C@@H]3[C@@H](O)C[C@@H]4C[C@H](O)CC[C@]4(C)[C@H]3CC[C@]12C [Example 4, (S)-2-((R)-4-((3R,5S,7S,8R,9S,10S,13R,14S,17R)-3,7-dihydroxy-10,13-dimethyl-hexadecahydro-1H-cyclopenta[a]phenanthren-17-yl)pentanamido)-3-(1H-indol-3-yl)propanoic acid]
effect of inhibiting the binding between PreS1 and NTCP expressing cell lines by treatment concentration (2 µM, 10 µM, 20 µM, 50 µM compound, 20 nM PreS1): concentration dependent

C[C@H](CCC(=O)N1CCCC1C(=O)O)[C@H]1CC[C@H]2[C@@H]3CC[C@@H]4C[C@H](O)CC[C@]4(C)[C@H]3CC[C@]12C (stereo partly drawn) [Example 38, 1-((R)-4-((3R,5R,8R,9S,10S,13R,14S,17R)-3-hydroxy-10,13-dimethyl-hexadecahydro-1H-cyclopenta[a]phenanthren-17-yl)pentanoyl)pyrrolidine-2-carboxylic acid]
activity at 50 µM: ≤ 20%

C[C@H](CCC(=O)N[C@@H](CS)C(=O)O)[C@H]1CC[C@H]2[C@@H]3CC[C@@H]4C[C@H](O)CC[C@]4(C)[C@H]3CC[C@]12C [Example 40, (R)-2-((R)-4-((3R,5R,8R,9S,10S,13R,14S,17R)-3-hydroxy-10,13-dimethyl-hexadecahydro-1H-cyclopenta[a]phenanthren-17-yl)pentanamido)-3-mercaptopropanoic acid]
activity at 50 µM: ≤ 20%

CC(C)C[C@H](NC(=O)CC[C@@H](C)[C@H]1CC[C@H]2[C@@H]3CC[C@@H]4C[C@H](O)CC[C@]4(C)[C@H]3CC[C@]12C)C(=O)O [Example 47]
activity at 50 µM: ≤ 20%

CSCC[C@H](NC(=O)CC[C@@H](C)[C@H]1CC[C@H]2[C@@H]3CC[C@@H]4C[C@H](O)CC[C@]4(C)[C@H]3CC[C@]12C)C(=O)O [Example 48, (S)-2-((R)-4-((3R,5R,8R,9S,10S,13R,14S,17R)-3-hydroxy-10,13-dimethyl-hexadecahydro-1H-cyclopenta[a]phenanthren-17-yl)pentanamido)-4-(methylthio)butanoic acid]
activity at 50 µM: ≤ 20%
